Measured values from US20230027104A1, “NUTRITIONAL POWDER COMPRISING OLIGOPEPTIDES AND APPLICATIONS THEREOF” (Suzhou Jianyuan Biotechnology Co., Ltd., priority 2021, published 2023).
Marks after values point to notes of the source that are not given here.

Experiments:
Assay type in all cases: in vivo, human
[1] = test system: healthy middle-aged men and women; test: Hangover cure and rehabilitation effect after excessive drinking of red wine (self-rated discomfort level); conditions: 1 cysteine tablet (1200 mg L-cysteine) before dinner
Experimental: (§1) Thirty-six healthy middle-aged men and women were chosen and divided into four groups, namely, the control group, the cysteine group, the 5 g oligopeptide nutrition group (prepared in Example 3) and the 10 g oligopeptide nutrition group (prepared in Example 3), and they experienced the hangover cure and rehabilitation effect of the oligopeptide nutritional powder for excessive drinking of red wine. Ten to twenty minutes before dinner, 150 mL of plain boiled water at a temperature of 35° C. was prepared for each person. In the control group, the subjects only drank plain boiled water; in the cysteine group, the subjects took 1 cysteine tablet (each comprising 1200 mg L-cysteine, produced by U.S. Now Food) when drinking water; in the 5 g oligopeptide nutritional group, the subjects put 5 g of the oligopeptide nutritional powder into a cup, poured 150 mL of plain boiled water, stirred to dissolve and drink; in the 10 g oligopeptide nutritional group, the subjects put 10 g of the oligopeptide nutritional powder into a cup, poured 150 mL of plain boiled water, stirred to dissolve and drink.
Dinners started at 18:00 and ended at 20:00. Each of 36 subjects drank 400 mL of red wine (France Saint Arnaud Cabernet Sauvignon 2015, 13.5% vol. Cabernet Sauvignon). […] All subjects' forms were collected, and the subjects' conditions were recorded and analyzed by classification.

[2] = test system: healthy middle-aged men and women; test: Summary of hangover cure and rehabilitation effects on excessive drinking of liquor and red wine; conditions: liquor and red wine summarised, 1200 mg cysteine
Experimental: as §1, with “3).” for “3), and they experienced the hangover cure and rehabilitation effect of the oligopeptide nutritional powder for excessive drinking of red wine.”, “dinner (at time 18:00),” for “dinner,”, “person in advance.” for “person.”
Dinners started at 18:00 and ended at 20:00. Each of 36 subjects drank 200 mL of liquor (Kweichow Moutai Liquor 2018, 53% vol. 106 PROOF) within two hours. The subjects' dinners were mainly Chinese stir-fried dishes, including fish, meat and vegetables, with rice as the staple food, and the dinners lasted two hours. In the next morning at 8:00 (12 hours after drinking) and in the third morning at 8:00 (36 hours after drinking), the subjects filled in the forms, indicating personal feelings. The personal feelings included 5 levels, namely, level 0 indicated no discomfort, level 1 indicated slight tiredness, level 2 indicated feeling of dizziness, level 3 indicated headache, level 4 indicated nausea or vomiting, requiring stay in bed. All subjects' forms were collected, and the subjects' conditions were recorded and analyzed by classification.
Thirty-six healthy middle-aged men and women were chosen and divided into four groups, namely, the control group, the cysteine group, the 5 g oligopeptide nutrition group (prepared in Example 3) and the 10 g oligopeptide nutrition group (prepared in Example 3), and they experienced the hangover cure and rehabilitation effect of the oligopeptide nutritional powder for excessive drinking of red wine. Ten to twenty minutes before dinner, 150 mL of plain boiled water at a temperature of 35° C. was prepared for each person. […]
Dinners started at 18:00 and ended at 20:00. […] All subjects' forms were collected, and the subjects' conditions were recorded and analyzed by classification.

[3] = test system: healthy middle-aged men and women; test: Hangover cure and rehabilitation effect after excessive drinking of liquor (self-rated discomfort level); conditions: 1 cysteine tablet (1200 mg L-cysteine) before dinner
Experimental: as §1, with “3).” for “3), and they experienced the hangover cure and rehabilitation effect of the oligopeptide nutritional powder for excessive drinking of red wine.”, “dinner (at time 18:00),” for “dinner,”, “person in advance.” for “person.”
Dinners started at 18:00 and ended at 20:00. Each of 36 subjects drank 200 mL of liquor (Kweichow Moutai Liquor 2018, 53% vol. 106 PROOF) within two hours. […] All subjects' forms were collected, and the subjects' conditions were recorded and analyzed by classification.

[4] = Effect on blood alcohol content after drinking liquor or red wine (breath alcohol tester)
Experimental: Thirty healthy middle-aged men and women were chosen and divided into three groups, namely, the control group, the cysteine group and the 10 g oligopeptide nutrition group. After drinking liquor and red wine, the effects of the oligopeptide nutritional powder on the blood alcohol contents were compared. Ten to twenty minutes before dinner, 150 mL of plain boiled water at a temperature of 35° C. was prepared for each person. In the control group, the subjects only drank plain boiled water; in the cysteine group, the subjects took 1 cysteine tablet (each comprising 1200 mg L-cysteine, produced by U.S. Now Food) when drinking water; in the 10 g oligopeptide nutritional group, the subjects put 10 g of the oligopeptide nutritional powder into a cup, poured 150 mL of plain boiled water, stirred to dissolve and drink.
Dinners started at 18:00 and ended at 20:00. Each of 30 subjects drank 200 mL of liquor (Kweichow Moutai Liquor 2018, 53% vol. 106 PROOF) or 400 mL of red wine (France Saint Arnaud Cabernet Sauvignon 2015, 13.5% vol. Cabernet Sauvignon) within two hours. The subjects' dinners were mainly Chinese stir-fried dishes, including fish, meat and vegetables, with rice as the staple food, and the dinners lasted two hours. Every 30 minutes after the start of drinking, the breath alcohol tester (Mr. Black-03) was used to test the blood alcohol content of each subject for four hours, then test once every two hours; on the 16th hour after drinking, the test was over. The data of the subjects were recorded separately, and the statistical analysis of data was performed by groups. The blood alcohol metabolism curve of each group was completed by Gaussian Fitting method. For oligopeptide nutritional powder, after 4 hours of excessive drinking of liquor and red wine, namely, 2 hours after the end of meals, the blood alcohol content was measured, as shown in Table 3.

With `N[C@@H](CS)C(=O)O` [cysteine tablets, L-cysteine] as the compound, how does the “subjects with obvious discomfort (>2 degree of discomfort)” value ([1]; 12 hours after drinking 400 mL red wine) read?
Its value is 44.4%.

And the “subjects with obvious discomfort” value ([1]; 36 hours after drinking 400 mL red wine)?
Its value is 22.2%.

What about the “Proportion of > degree 2 discomfort 12 hours after drinking wine” value [2] of the same compound?
Its value is 44.4%.

What about the “Proportion of > degree 2 discomfort 12 hours after drinking wine” value ([2]; listed as Cysteine) of the same compound?
The value was 44.4%^b.

And the “Proportion of > degree 2 discomfort 36 hours after drinking wine” value ([2]; listed as Cysteine)?
The value was 22.2%^a.

And the “Proportion of > degree 2 discomfort 36 hours after drinking wine” value ([2]; listed as cysteine)?
Its value is 22.2%.

And the “subjects with obvious discomfort (>2 degree of discomfort)” value ([3]; 12 hours after drinking 200 mL liquor)?
The value was 44.4%.

What about the “subjects with obvious discomfort” value ([3]; 36 hours after drinking 200 mL liquor) of the same compound?
Its value is 22.2%.

And the “Blood alcohol content 4 hours after drinking liquor” value ([4]; 200 mL liquor, 1200 mg cysteine before dinner, breath alcohol tester)?
Its value is 42.3 ± 3.1^b mg/100 mL.

What about the “Blood alcohol content 4 hours after drinking red wine” value ([4]; 400 mL red wine, 1200 mg cysteine before dinner, breath alcohol tester) of the same compound?
Its value is 38.7 ± 6.8^ab mg/100 mL.

What about the “blood alcohol content versus alcohol content threshold for drunk driving” value ([4]; within 4 hours of drinking liquor or red wine, cysteine group (1200 mg)) of the same compound?
The value was > 20 mg/100 mL.
